Assay results reported in patent US20110300168A1, “COMPOSITIONS AND METHODS FOR INDUCING AN IMMUNE RESPONSE AGAINST INFLUENZA ANTIGENS” (THE JOHNS HOPKINS UNIVERSITY, priority 2010, published 2011).

How the values were obtained:
Type in all cases: cell-based, human
[1] = test system: CD8+ T cells; conditions: control donors aged 21-42, wk 0 directly ex vivo, peptide pulsed T2 cells 1:1; positive if SFC greater than 5 per 100000 CD8+ T cells, p<0.05
[2] = test system: CD8+ T cells; conditions: for control donors in whom the epitope elicited a response: 12 control donors, aAPC assay, ICS; for geriatric donors with CD8+ T cells responding to the epitope: nine geriatric donors aged 65 and above, IFNγ ICS after 3 weeks of aAPC stimulation
[3] = test system: CD8+ T cells

Sequence | number of donors who responded by IFNγ ELISpot [1] | control donors in whom the epitope elicited a response [2] | geriatric donors with CD8+ T cells responding to the epitope [2] | CD8+ T cells specific for the epitope by A2-Ig dimer staining [3] [%] | CD8+ T cells specific by IFNγ expression (ICS) ([2]; Donor C1, after 3 weekly aAPC stimulations, restimulated with peptide pulsed T2 cells 1:1) [%]
SLENFRAYV (listed as Influenza virus) [PA225-233, subdominant influenza peptide, pool 1] | One | – | – | – | –
IMDKNIILKA (listed as Influenza virus) [NS1123-132, subdominant influenza peptide, pool 2] | One | majority of the donors | Donors E2, E3, E4, and E8 responded | – | –
SLCPIRGWAI (listed as Influenza virus) [NA75-84, subdominant influenza peptide, pool 2] | 2 | – | – | – | –
CVNGSCFTV (listed as Influenza virus) [NA231-239, subdominant influenza peptide, pool 1] | no donor responded | – | – | – | –
NMLSTVLGV (listed as Influenza virus) [PB1413-421, subdominant influenza peptide, pool 1] | Four out of the six | majority of the donors | none responded | 75 | 37
